pEC50: −log10 of the molar value.
Each compound was assayed against T1, hSTING (Homo sapiens, UniProt Q86WV6, G230A/H232R/R293Q/R71H) (assay: STING reporter assay (luciferase) in THP1-Dual KO-IFNAR2 cells stimulated with 2′3′cGAMP). Conditions: 2′3′cGAMP 15 μM, 24 h, class symbols.
T1 construct: host or cells: THP1-Dual KO-IFNAR2 cells
Type: cell-based
Procedure, shortened: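 THP1-Dual KO-IFNAR2 cells (2×10E6 cells/mL) were treated with compound at 0.0017-100 μM final plus 15 μM final 2′3′cGAMP delivered with Lipofectamine 2000. After 24 h at 37° C., secreted luciferase in supernatant was read by QUANTI-Luc luminescence and EC50 values were fitted.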

T1 sequence (Q86WV6 whole entry R71H/G230A/H232R/R293Q): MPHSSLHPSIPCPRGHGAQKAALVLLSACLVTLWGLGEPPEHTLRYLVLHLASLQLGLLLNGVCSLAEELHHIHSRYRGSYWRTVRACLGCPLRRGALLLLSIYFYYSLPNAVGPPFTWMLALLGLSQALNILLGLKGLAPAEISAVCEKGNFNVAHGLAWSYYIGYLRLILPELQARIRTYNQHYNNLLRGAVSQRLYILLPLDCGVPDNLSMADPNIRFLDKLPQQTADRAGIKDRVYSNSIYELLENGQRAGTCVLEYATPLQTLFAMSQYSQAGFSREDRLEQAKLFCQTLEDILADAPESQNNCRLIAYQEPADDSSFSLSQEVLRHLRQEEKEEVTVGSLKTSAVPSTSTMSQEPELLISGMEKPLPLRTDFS

Row | SMILES | pEC50
1 | Cc1cc(NC(=O)Nc2c[nH]c3ncc(F)cc23)cnc1N1CCC(C)CC1 [Compound 170, 1-(5-fluoro-1H-pyrrolo[2,3-b]pyridin-3-yl)-3-(5-methyl-6-(4-methylpiperidin-1-yl)pyridin-3-yl)urea] | 6.00 to 6.70
2 | COc1ccc2[nH]cc(NC(=O)Nc3cnc(C4CCC(F)(F)CC4)c(Cl)c3)c2n1 [Compound 233, 1-(5-chloro-6-(4,4-difluorocyclohexyl)pyridin-3-yl)-3-(5-methoxy-1H-pyrrolo[3,2-b]pyridin-3-yl)urea] | 6.70 to 7.40
3 | COCCOc1ccc2[nH]cc(NC(=O)Nc3cnc(C4CCC(F)(F)CC4)c(F)c3)c2n1 [Compound 210, 1-(6-(4,4-difluorocyclohexyl)-5-fluoropyridin-3-yl)-3-(5-(2-methoxyethoxy)-1H-pyrrolo[3,2-b]pyridin-3-yl)urea] | 6.00 to 6.70
4 | O=C(Nc1cc(Cl)c(N2CCC(F)(F)CC2)cn1)Nc1c[nH]c2cccnc12 [Compound 235, 1-(4-chloro-5-(4,4-difluoropiperidin-1-yl)pyridin-2-yl)-3-(1H-pyrrolo[3,2-b]pyridin-3-yl)urea] | 5.30 to 6.00
5 | Cc1cc(NC(=O)Nc2c[nH]c3ncc(F)cc23)cnc1N1CCC2(CC1)CC2 [Compound 192, 1-(5-fluoro-1H-pyrrolo[2,3-b]pyridin-3-yl)-3-(5-methyl-6-(6-azaspiro[2.5]octan-6-yl)pyridin-3-yl)urea] | 6.70 to 7.40
6 | COc1ccc2[nH]cc(NC(=O)Nc3ccc(C4CCC(F)(F)CC4)nc3)c2n1 [Compound 213, 1-(6-(4,4-difluorocyclohexyl)pyridin-3-yl)-3-(5-methoxy-1H-pyrrolo[3,2-b]pyridin-3-yl)urea] | 6.00 to 6.70

Next, values leading:

Row | pEC50 | SMILES
7 | 5.30 to 6.00 | O=C(Nc1cnc(N2CCN(CCC(F)(F)F)CC2)c(Cl)c1)Nc1c[nH]c2cccnc12 [Compound 225, 1-(5-chloro-6-(4-(3,3,3-trifluoropropyl)piperazin-1-yl)pyridin-3-yl)-3-(1H-pyrrolo[3,2-b]pyridin-3-yl)urea]
8 | 6.00 to 6.70 | N#Cc1cc(NC(=O)Nc2c[nH]c3cccnc23)ccc1C1CCC(F)(F)CC1 [Compound 148, 1-(3-cyano-4-(4,4-difluorocyclohexyl)phenyl)-3-(1H-pyrrolo[3,2-b]pyridin-3-yl)urea]
9 | 6.00 to 6.70 | O=C(Nc1ccc(C2CC(F)(F)C2)c(Cl)c1)Nc1c[nH]c2cccnc12 [Compound 219, 1-(3-chloro-4-(3,3-difluorocyclobutyl)phenyl)-3-(1H-pyrrolo[3,2-b]pyridin-3-yl)urea]
10 | 6.00 to 6.70 | O=C(Nc1cnc(N2CCC3(CC2)CC3)c(Cl)c1)Nc1c[nH]c2cccnc12 [Compound 221, 1-(5-chloro-6-(6-azaspiro[2.5]octan-6-yl)pyridin-3-yl)-3-(1H-pyrrolo[3,2-b]pyridin-3-yl)urea]
11 | 6.00 to 6.70 | O=C(Nc1cnc(C2CC(F)(F)C2)c(Cl)c1)Nc1c[nH]c2ncc(F)cc12 [Compound 166, 1-(5-chloro-6-(3,3-difluorocyclobutyl)pyridin-3-yl)-3-(5-fluoro-1H-pyrrolo[2,3-b]pyridin-3-yl)urea]
12 | 6.00 to 6.70 | O=C(Nc1cnc(N2CCC(F)(F)CC2)nc1)Nc1c[nH]c2ncc(F)cc12 [Compound 190, 1-(2-(4,4-difluoropiperidin-1-yl)pyrimidin-5-yl)-3-(5-fluoro-1H-pyrrolo[2,3-b]pyridin-3-yl)urea]
13 | 6.00 to 6.70 | Cc1cc(NC(=O)Nc2c[nH]c3ncc(F)cc23)cnc1N1CC2(C1)CC(F)(F)C2 [Compound 162, 1-(6-(6,6-difluoro-2-azaspiro[3.3]heptan-2-yl)-5-methylpyridin-3-yl)-3-(5-fluoro-1H-pyrrolo[2,3-b]pyridin-3-yl)urea]
14 | 6.00 to 6.70 | COc1ccc2[nH]cc(NC(=O)Nc3cnc(N4CC(F)(F)C4)c(Cl)c3)c2n1 [Compound 231, 1-(5-chloro-6-(3,3-difluoroazetidin-1-yl)pyridin-3-yl)-3-(5-methoxy-1H-pyrrolo[3,2-b]pyridin-3-yl)urea]

Same assay, conditions: 2′3′cGAMP 15 μM, 24 h, numeric bounds

Row | pEC50 | SMILES
15 | < 4.52 | O=C(Nc1ccc(N2CCC(F)(F)CC2)nc1)Nc1c[nH]c2cccnc12 [Compound 220, 1-(6-(4,4-difluoropiperidin-1-yl)pyridin-3-yl)-3-(1H-pyrrolo[3,2-b]pyridin-3-yl)urea]

— patent US20230115274A1, “COMPOUNDS AND COMPOSITIONS FOR TREATING CONDITIONS ASSOCIATED WITH STING ACTIVITY” (IFM Due, Inc., priority 2019, published 2023)
